Structures can show the parent of a compound that is named as a salt.

The text below walks through data of US11352322B2, “Cyclopropyl-amide compounds as dual LSD1/HDAC inhibitors” (Jubilant Epicore LLC, priority 2016, dated 2022).

Data set [1] in a line: Metabolic stability in liver microsomes, HLM. Particulars: 1 μM, NADPH. (Liver microsomes are a subcellular fraction often used to study metabolism.)
Protocol: (§1) The microsomal suspension was prepared by adding liver microsomes to 100 mM potassium phosphate buffer (pH7.4) to give a final protein concentration of 0.5 mg/mL. The stock solution of NCE (10 mM in DMSO) was added to the microsomes to provide a final concentration of 1 μM. […] Samples were vortexed and centrifuged at 5,000 rpm for 10 min to remove proteins. Supernatant were analyzed on LC-MS/MS.
Data set [2] deals with HDAC6 human recombinant enzyme (Homo sapiens (Human), UniProt Q9UBN7). The experiment in a line: Histone Deacetylase Assay (BPS Biosciences), HDAC6. In kind it is biochemical. The source says: Histone Deacetylase Assay (BPS Biosciences)
Histone deacetylase assay was done as per manufacturer's instructions.

A short description of data set [3]: Metabolic stability in liver microsomes, MLM. Particulars: 1 μM, NADPH.
Protocol: as §1
The test system of another data set is MM1S. The experiment in a line: Anticancer activity: Alamar Blue assay, MM1S. The data set is classed as cell-based. The settings on record: Homo sapiens, MM1.S, read-out: MM1S EC50.

Chain of HDAC6 human recombinant enzyme (Q9UBN7 whole entry): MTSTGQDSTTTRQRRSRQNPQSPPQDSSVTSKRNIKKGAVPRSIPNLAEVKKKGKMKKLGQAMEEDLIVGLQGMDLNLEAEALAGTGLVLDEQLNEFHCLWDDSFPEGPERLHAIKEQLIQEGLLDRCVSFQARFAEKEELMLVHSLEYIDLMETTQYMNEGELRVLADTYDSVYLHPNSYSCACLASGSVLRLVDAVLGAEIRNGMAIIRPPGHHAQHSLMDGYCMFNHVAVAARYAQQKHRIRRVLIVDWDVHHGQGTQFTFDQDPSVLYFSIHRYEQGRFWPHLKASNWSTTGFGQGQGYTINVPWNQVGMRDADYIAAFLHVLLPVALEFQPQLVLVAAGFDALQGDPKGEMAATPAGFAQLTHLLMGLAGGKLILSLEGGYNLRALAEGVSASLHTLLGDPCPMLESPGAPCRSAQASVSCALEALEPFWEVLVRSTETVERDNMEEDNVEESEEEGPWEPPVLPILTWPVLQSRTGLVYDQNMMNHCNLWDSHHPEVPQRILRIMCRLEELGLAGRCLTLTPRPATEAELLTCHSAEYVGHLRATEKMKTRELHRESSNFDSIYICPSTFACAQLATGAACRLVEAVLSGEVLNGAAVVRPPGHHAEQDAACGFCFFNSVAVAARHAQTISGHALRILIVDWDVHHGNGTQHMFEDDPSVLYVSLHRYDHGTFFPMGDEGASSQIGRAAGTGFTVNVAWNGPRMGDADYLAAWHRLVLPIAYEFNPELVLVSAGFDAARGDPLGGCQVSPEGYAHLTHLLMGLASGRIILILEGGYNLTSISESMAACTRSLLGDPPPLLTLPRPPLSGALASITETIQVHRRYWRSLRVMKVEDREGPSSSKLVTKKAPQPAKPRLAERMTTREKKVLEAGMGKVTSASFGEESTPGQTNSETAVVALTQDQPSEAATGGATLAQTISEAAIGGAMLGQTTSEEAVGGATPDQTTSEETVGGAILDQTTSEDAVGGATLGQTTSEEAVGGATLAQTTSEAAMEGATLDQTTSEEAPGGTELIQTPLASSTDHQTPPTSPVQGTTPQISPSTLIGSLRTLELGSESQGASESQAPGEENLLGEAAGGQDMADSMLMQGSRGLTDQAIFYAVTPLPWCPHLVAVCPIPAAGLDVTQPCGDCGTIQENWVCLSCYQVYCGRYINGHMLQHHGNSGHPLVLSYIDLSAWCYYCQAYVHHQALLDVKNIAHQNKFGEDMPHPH

For `O=C(NO)c1ccc(CC(=O)N2CCC(CN[C@H]3C[C@@H]3c3ccccc3)CC2)cc1` [Example 84B, N-hydroxy-4-(2-oxo-2-(4-((((1S,2R)-2-phenylcyclopropyl)amino)methyl)piperidin-1-yl)ethyl)benzamide TFA Salt], the “Metabolic stability HLM % remaining in 30 min” value in data set [1] was determined as 75%. The IC50 in data set [2] was found to be 25 nM. Moreover, the “Metabolic stability MLM % remaining in 30 min” value in data set [3] is recorded as 45%. In addition, the EC50 with MM1S amounted to 259 nM.
With `Nc1ccccc1NC(=O)c1ccc(CNC(=O)CNC2CC2c2ccc(F)cc2)cc1` (stereo not shown) [Example 155, N-(2-aminophenyl)-4-((2-((2-(4-fluorophenyl)cyclopropyl)amino)acetamido)methyl)benzamide TFA Salt], the “Metabolic stability HLM % remaining in 30 min” value in data set [1] came to 46%. Besides, the IC50 in data set [2] was above 10000 nM. The “Metabolic stability MLM % remaining in 30 min” value in data set [3] is reported as 34%. Moreover, the EC50 with MM1S amounted to 42 nM.
For `Nc1ccccc1NC(=O)c1ccc(CCCN2CCC(CNC3CC3c3ccc(F)cc3)CC2)cc1` (stereo not shown) [Example 122, N-(2-aminophenyl)-4-(3-(4-(((2-(4-fluorophenyl)cyclopropyl)amino)methyl)piperidin-1-yl)propyl)benzamide TFA Salt], the “Metabolic stability HLM % remaining in 30 min” value in data set [1] is 77%. The “Metabolic stability MLM % remaining in 30 min” value in data set [3] stood at 72%. Also, the concentration giving a half-maximal response (EC50) in the data set with MM1S amounted to 15 nM.
On to `Nc1ccccc1NC(=O)c1cnc(CCCN2CCC(CNC3CC3c3ccccc3)CC2)s1` (stereo not shown) [Example 154, N-(2-aminophenyl)-2-(3-(4-(((2-phenylcyclopropyl)amino)methyl)piperidin-1-yl)propyl)thiazole-5-carboxamide TFA Salt], for which the IC50 in data set [2] is above 10000 nM.
Turning to `O=C(NO)c1ccc(CCS(=O)(=O)N2CCC(CNC3CC3c3ccccc3)CC2)cc1` (stereo not shown) [Example 88, N-hydroxy-4-(2-((4-(((2-phenylcyclopropyl)amino)methyl)piperidin-1-yl)sulfonyl)ethyl)benzamide TFA Salt], in data set [2], the IC50 was 77 nM.
Turning to `COc1ccc(C2CC2NCC2CCN(c3ncc(C(=O)NO)cn3)CC2)cc1` (stereo not shown) [Example 18, N-hydroxy-2-(4-(((2-(4-methoxyphenyl)cyclopropyl)amino)methyl)piperidin-1-yl)pyrimidine-5-carboxamide TFA Salt], in data set [1], the “Metabolic stability HLM % remaining in 30 min” value came out at 41%. Moreover, in data set [3], the “Metabolic stability MLM % remaining in 30 min” value amounted to 28%. Further, the EC50 in the data set on MM1S is 3 nM.
In the same order, the values of `Nc1ccccc1NC(=O)c1ccc(CCCN2CCC(CNC3CC3c3ccccc3)CC2)cc1` (stereo not shown) [Example 121, N-(2-aminophenyl)-4-(3-(4-(((2-phenylcyclopropyl)amino)methyl)piperidin-1-yl)propyl)benzamide TFA Salt] are 36%, 42% and 3 nM.
For `O=C(NO)c1ccc(CCCN2CCC(CNC3CC3c3cnn(-c4ccccc4)c3)CC2)cc1` (stereo not shown) [Example 68, N-hydroxy-4-(3-(4-(((2-(1-phenyl-1H-pyrazol-4-yl)cyclopropyl)amino)methyl)piperidin-1-yl)propyl)benzamide TFA Salt], the IC50 in data set [2] turned out to be 104 nM.
For `COc1ccc(C2CC2NC2CCN(c3ncc(C(=O)NO)cn3)CC2)cc1` (stereo not shown) [Example 19, N-hydroxy-2-(4-((2-(4-methoxyphenyl)cyclopropyl)amino)piperidin-1-yl)pyrimidine-5-carboxamide TFA Salt], in data set [1], the “Metabolic stability HLM % remaining in 30 min” value amounted to 83%. Moreover, in data set [3], the “Metabolic stability MLM % remaining in 30 min” value was 71%. Moreover, in the data set with MM1S, the EC50 turned out to be 7 nM.
On the same counts, the results for `O=C(NO)c1ccc(OCCCN2CCC(CNC3CC3c3ccccc3)CC2)cc1` (stereo not shown) [Example 100, N-hydroxy-4-(3-(4-(((2-phenylcyclopropyl)amino)methyl)piperidin-1-yl)propoxy)benzamide TFA Salt] are 63%, 57% and 17 nM.
In the same order, the values of `O=C(NO)c1cnc(N2CCC(NC3CC3c3ccc(-c4ccc(Cl)cc4)cc3)CC2)nc1` (stereo not shown) [Example 13, 2-(4-((2-(4′-chloro-[1,1′-biphenyl]-4-yl)cyclopropyl)amino)piperidin-1-yl)-N-hydroxypyrimidine-5-carboxamide TFA Salt] are 57%, 23% and 24 nM.
On to `Nc1ccccc1NC(=O)c1ccc(CCN2CCC(CNC3CC3c3ccccc3)CC2)cc1` (stereo not shown) [Example 139, N-(2-aminophenyl)-4-(2-(4-(((2-phenylcyclopropyl)amino)methyl)piperidin-1-yl)ethyl)benzamide TFA Salt], for which the 50% inhibitory concentration (IC50) in data set [2] is above 10000 nM.
Take `O=C(NO)c1cnc(N2CCC(CNC3CC3c3ccc(-c4ccc(Cl)cc4)cc3)CC2)nc1` (stereo not shown) [Example 14, 2-(4-(((2-(4′-chloro-[1,1′-biphenyl]-4-yl)cyclopropyl)amino)methyl)piperidin-1-yl)-N-hydroxypyrimidine-5-carboxamide TFA Salt]: the “Metabolic stability HLM % remaining in 30 min” value in data set [1] is 88%. Moreover, the “Metabolic stability MLM % remaining in 30 min” value in data set [3] amounted to 82%. Besides, the EC50 in the data set with MM1S turned out to be 8 nM.
On the same counts, the results for `O=C(NO)c1cnc(N2CCC(CNC3CC3c3ccc(OCc4ccc(F)cc4)cc3)CC2)nc1` (stereo not shown) [Example 11, 2-(4-(((2-(4-((4-fluorobenzyl)oxy)phenyl)cyclopropyl)amino)methyl)piperidin-1-yl)-N-hydroxypyrimidine-5-carboxamide TFA Salt] are 44%, 14% and 18 nM.
For the compound `O=C(NO)c1ccc(CCCN2CCC(CNC3CC3c3cccc(F)c3)CC2)cc1` (stereo not shown) [Example 49, 4-(3-(4-(((2-(3-fluorophenyl)cyclopropyl)amino)methyl)piperidin-1-yl)propyl)-N-hydroxybenzamide TFA Salt], the “Metabolic stability HLM % remaining in 30 min” value in data set [1] came to 48%. Besides, the “Metabolic stability MLM % remaining in 30 min” value in data set [3] was found to be 34%. Moreover, the EC50 in the data set with MM1S is 62 nM.
`O=C(NO)c1cnc(N2CCC(NC3CC3c3ccccc3)CC2)nc1` (stereo not shown) [Example 9, 2-[4-(2-Phenyl-cyclopropylamino)-piperidin-1-yl]-pyrimidine-5-carboxylic Acid Hydroxyamide TFA Salt]: in data set [1], the “Metabolic stability HLM % remaining in 30 min” value is 65%. Moreover, the “Metabolic stability MLM % remaining in 30 min” value in data set [3] was determined as 50%. Moreover, in the data set on MM1S, the EC50 is 4 nM.
On the same counts, the results for `Nc1ccccc1NC(=O)c1ccc(CCCN2CCC(CNC3CC3c3ccc(F)c(F)c3)CC2)cc1` (stereo not shown) [Example 124, N-(2-aminophenyl)-4-(3-(4-(((2-(3,4-difluorophenyl)cyclopropyl)amino)methyl)piperidin-1-yl)propyl)benzamide TFA Salt] are 73%, 68% and 14 nM.
In the same order, the values of `O=C(NO)c1ccc(CCC(=O)N2CCN(C(=O)CNC3CC3c3ccccc3)CC2)cc1` (stereo not shown) [Example 92, N-hydroxy-4-(3-oxo-3-(4-(2-((2-phenylcyclopropyl)amino)acetyl)piperazin-1-yl)propyl)benzamide TFA Salt] are 95%, 91% and 1400 nM.
Turning to `O=C(NO)c1ccc2c(c1)CN(C(=O)CCCNC1CC1c1ccc(F)cc1)C2` (stereo not shown) [Example 108, 2-(4-((2-(4-fluorophenyl)cyclopropyl)amino)butanoyl)-N-hydroxyisoindoline-5-carboxamide TFA Salt], the “Metabolic stability HLM % remaining in 30 min” value in data set [1] is given as above 95%. The “Metabolic stability MLM % remaining in 30 min” value in data set [3] came out at 85%. Further, the EC50 with MM1S was found to be 584 nM.
On the same counts, the results for `O=C(NO)c1ccc(CN2CCN(C(=O)CNC3CC3c3ccccc3)CC2)cc1` (stereo not shown) [Example 91, N-hydroxy-4-((4-(2-((2-phenylcyclopropyl)amino)acetyl)piperazin-1-yl)methyl)benzamide TFA Salt] are 85%, 79% and 468 nM.
In the same order, the values of `Cc1noc(C)c1-c1ccc(C2CC2NCC2CCN(c3ncc(C(=O)NO)cn3)CC2)cc1` (stereo not shown) [Example 16, 2-(4-(((2-(4-(3,5-dimethylisoxazol-4-yl)phenyl)cyclopropyl)amino)methyl)piperidin-1-yl)-N-hydroxypyrimidine-5-carboxamide TFA Salt] are 47%, 25% and 17 nM.
On to `O=C(NO)c1ccc(CCCn2cnc(CNC3CC3c3ccc(F)c(F)c3)c2)cc1` (stereo not shown) [Example 73, 4-(3-(4-(((2-(3,4-difluorophenyl)cyclopropyl)amino)methyl)-1H-imidazol-1-yl)propyl)-N-hydroxybenzamide TFA Salt], for which the “Metabolic stability HLM % remaining in 30 min” value in data set [1] amounted to 52%. Moreover, the “Metabolic stability MLM % remaining in 30 min” value in data set [3] is listed as 53%. For the same compound, in the data set with MM1S, the EC50 is 540 nM.
In the same order, the values of `O=C(NO)c1cnc(N2CCn3cc(CNC4CC4c4ccccc4)nc3C2)nc1` (stereo not shown) [Example 23, N-hydroxy-2-(2-(((2-phenylcyclopropyl)amino)methyl)-5,6-dihydroimidazo[1,2-a]pyrazin-7(8H)-yl)pyrimidine-5-carboxamide TFA Salt] are 95%, 85% and 11 nM.
In the same order, the values of `O=C(NO)c1ccc(CCCNC2CC2c2ccc(F)cc2)cc1` (stereo not shown) [Example 30, 4-(3-((2-(4-fluorophenyl)cyclopropyl)amino)propyl)-N-hydroxybenzamide TFA Salt] are 16%, 51% and 45 nM.
Regarding `Nc1ccccc1NC(=O)c1ccc(CCCN2CCC(CNC3CC3c3cnn(-c4ccccc4)c3)CC2)cc1` (stereo not shown) [Example 129, N-(2-aminophenyl)-4-(3-(4-(((2-(1-phenyl-1H-pyrazol-4-yl)cyclopropyl)amino)methyl)piperidin-1-yl)propyl)benzamide TFA Salt], the IC50 in data set [2] was above 10000 nM.

One may read the IC50 as the midpoint of a concentration-inhibition curve. By EC50 is commonly meant the concentration at which the effect is half-maximal.
